According to article PMC10020666, “Oxidation modulates LINGO2-induced inactivation of large conductance, Ca^2+-activated potassium channels” (The Journal of Biological Chemistry, 2023):
Entries after “also recorded” stand apart in the source; their conditions may differ. Where two headings read alike, the source gives them in different places. Square brackets hold non-standard residues; d marks the D form. Peptide text beside a SMILES is read from it. Met(O) = CS(=O)CC[C@H](N)C(=O)O

How the values were obtained:
[1] = molecular target: T1, BKα currents (BK channels) in HEK cell patches (Oryctolagus cuniculus, UniProt Q9BG98); test: Inhibition of BKα currents by synthetic LINGO2 tail peptides (excised inside-out patch clamp); type: cell-based, rabbit; details: 1 μM Ca2+; for IC50Last5ms increase compared to WT LINGO2 peptide / 95% Confidence Intervals of IC50Last5ms: +160 mV; for IC50Last5ms increase compared to WT LINGO2 peptide: p < 0.001, extra sum of squares F-test; for IC50: step to +160 mV for 100 ms from -60 mV, inside-out patches, 37 °C, pH 7.2, Hill-Langmuir fit, mean ± SD; for Inactivation of BK currents by peptide: step to +160 mV, rate compared at 1 μM peptide
T1 construct: expressed in transfected cells; host or cells: HEK293 cells, transient transfection with lipofectamine (BKα cDNA plus GFP plasmid)
T1 sequence (Q9BG98 whole entry): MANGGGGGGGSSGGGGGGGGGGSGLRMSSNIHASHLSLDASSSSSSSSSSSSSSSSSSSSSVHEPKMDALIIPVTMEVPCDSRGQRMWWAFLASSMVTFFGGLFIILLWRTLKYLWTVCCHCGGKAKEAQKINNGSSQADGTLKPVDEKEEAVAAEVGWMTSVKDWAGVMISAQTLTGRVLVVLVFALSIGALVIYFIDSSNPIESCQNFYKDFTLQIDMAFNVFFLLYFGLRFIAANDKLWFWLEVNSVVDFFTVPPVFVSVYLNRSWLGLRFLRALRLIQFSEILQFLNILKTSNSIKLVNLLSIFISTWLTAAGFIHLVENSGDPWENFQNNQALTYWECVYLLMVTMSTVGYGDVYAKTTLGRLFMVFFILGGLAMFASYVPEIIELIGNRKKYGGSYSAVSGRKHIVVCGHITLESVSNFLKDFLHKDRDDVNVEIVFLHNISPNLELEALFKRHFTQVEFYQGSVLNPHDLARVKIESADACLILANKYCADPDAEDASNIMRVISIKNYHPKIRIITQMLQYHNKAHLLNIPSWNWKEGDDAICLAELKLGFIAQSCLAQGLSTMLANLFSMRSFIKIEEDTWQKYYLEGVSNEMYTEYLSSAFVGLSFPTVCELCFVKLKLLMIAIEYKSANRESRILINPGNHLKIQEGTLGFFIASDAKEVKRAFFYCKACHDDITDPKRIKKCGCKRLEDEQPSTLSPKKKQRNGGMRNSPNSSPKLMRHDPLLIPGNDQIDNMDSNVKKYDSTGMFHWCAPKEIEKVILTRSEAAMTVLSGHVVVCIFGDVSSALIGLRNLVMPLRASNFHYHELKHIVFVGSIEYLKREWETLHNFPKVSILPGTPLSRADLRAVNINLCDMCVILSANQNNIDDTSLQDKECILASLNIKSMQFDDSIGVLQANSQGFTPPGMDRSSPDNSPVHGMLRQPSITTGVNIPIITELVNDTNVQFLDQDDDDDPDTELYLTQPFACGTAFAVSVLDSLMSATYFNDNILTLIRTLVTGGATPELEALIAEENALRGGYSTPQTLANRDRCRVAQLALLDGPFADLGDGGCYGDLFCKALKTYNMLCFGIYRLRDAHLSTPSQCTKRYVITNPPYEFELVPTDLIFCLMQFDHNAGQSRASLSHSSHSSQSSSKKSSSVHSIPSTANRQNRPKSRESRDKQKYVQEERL
Description: (§1) All excised patch experiments were performed at 37 °C in 140 mM symmetrical K^+ solutions which contained 140 mM KCl, 10 mM glucose, 10 mM Hepes, and either 1 mM ethylene glycol-bis(β-amino ether)-N,N,N′,N′-tetraacetic acid (EGTA (for free [Ca^2+] 100 nM to 300 nM) or 1 mM hydroxyethylethylenediaminetriacetic acid (HEDTA for free [Ca^2+] 1 μM to 10 μM) and the pH of all solutions was adjusted to 7.2 with KOH. These solutions were made with double-distilled, deionized, filtered water from a MilliQ water purification system. The pipette solution contained 100 nM free Ca^2+. We used “Chelator” (https://www.ru.nl/animal/research/chelator/) to calculate the total amount of Ca^2+ required, as per Schoenmakers et al., ([40]) and free Ca^2+ concentrations were checked with a Ca^2+ sensitive electrode.
(§2) During experiments, the dish containing HEK cells was superfused with Hanks solution, which contained (in mM) 129.8 Na^+, 5.8 K^+, 135 Cl^-, 4.17 HCO3^-, 0.34 HPO4^2-, 0.44 H2PO4^-, 1.8 Ca^2+, 0.9 Mg^2+, 0.4 SO4^2-, 10 glucose, 2.9 sucrose, and 10 Hepes, and its pH was adjusted to 7.4 with NaOH. In addition, the patch under study was continuously superfused by means of a close delivery system consisting of a pipette (tip diameter 200 μm) placed approximately 300 μm away from the cell. This could be switched, with a dead-space time of around 5 s, to a solution containing a drug.
(§3) Electrodes were pulled from Corning borosilicate glass (1.5 mm O.D. × 0.86 mm I.D.) using a Sutter P-97 pipette puller and fire polished using a Narashige MF 83 microforge. Pipettes had resistances of 2 to 5 MΩ when filled with recording solutions and series resistance was compensated by up to 80%. Standard single-channel patch clamp recording methods were used. Voltage clamp commands were delivered via an Axopatch 200B patch clamp amplifier (Axon Instruments) connected to a Digidata 1322A AD/DA converter (Axon Instruments) interfaced to computers running pClamp software (Axon Instruments). Data was acquired at 100 KHz and filtered at 2 KHz or 5 KHz. Patches were held at either −60 mV or −100 mV and depolarized in 20 mV increments to 200 mV. Residual capacitance and leakage currents were subtracted using either a P/4 protocol or offline by manual leak subtraction.
(§4) The human LINGO2 transcript used [NM_001354575.2] was untagged in a pcDNA 3.1 vector (VectorBuilder). The α subunit of the rabbit BK channel was isolated from rabbit urethral smooth muscle and cloned using the pcDNA TOPO DNA cloning kit (Life Technologies). The identifiesd transcript corresponded to the ZERO variant of mouse BKα and to variant 2 (NM_002247.3) of human BKα. We used 100 ng ml^−1 cDNA for BKα only transfections, whereas a 100:500 ng ml^−1 cDNA ratio was used for BKα:LINGO2 and BKα:LINGO1 cotransfections for inside-out patch recordings. GFP (150 ng ml^−1) was included in all transfections except those used for Figure 2, C and D. cDNA was transiently transfected into HEK cells using lipofectamine. Site-directed mutagenesis used the Phusion kit (Thermo Fisher Scientific) method ([41]) and all mutations were confirmed by sequencing.
(§5) HEK293 cells were cultured in Dulbecco's modified Eagle's medium + MEM media containing 10% fetal bovine serum and 1% Penicillin-Streptomycin antibiotics at 37 °C, and 95% humidifying incubator containing 5% CO2. Subculturing was done by 0.05% Trypsin-EDTA solution.
Concentration–effect data were fitted with a Hill–Langmuir equation:[4] I/Icontrol=1/{1+10^ˆ(log[Drug]−logIC50)} where, I was the current recorded in the drug, Icontrol was the current in the absence of drug, IC50 was the half-maximal effective concentration, and [Drug] was the concentration variable.
All data is presented as mean ± SD and was analyzed with Prism software (GraphPad). Individual data points are also shown in bar charts. […]

BK:LINGO2 channels = test: Effect of oxidizing/reducing agents on BK:LINGO2 currents (inside-out patch, step to +160 mV); type: cell-based, rabbit BKα, human LINGO2
Description: as §1, §2, §3, §4, §5
All data is presented as mean ± SD and was analyzed with Prism software (GraphPad). Individual data points are also shown in bar charts. Statistical differences were assessed using either paired or unpaired nonparametric tests (Wilcoxin signed-rank test, Mann–Whitney test), or the extra sum of squares F-test, as appropriate. Comparisons of three or more nonparametric data sets used Friedman’s test followed by Dunn’s test for multiple comparisons, whereas ANOVA was used for three or more parametric data sets. p < 0.05 was taken as significant.

[2] = molecular target: α subunit of the rabbit BK channel (large conductance, Ca2+ and voltage-activated K+ channel) (rabbit)
[3] = n = 5 (M605 oxidized), 6 (M603 oxidized), 7 (both), read-out: IC50Last5ms (half maximal block of current amplitude in last 5 ms of pulse)

Row | Molecule | IC50 [1, 3] [nM] | Inactivation of BK currents by peptide [1] | IC50Last5ms: concentration of the peptide that produced half maximal block in BKα current amplitude in the last 5 ms of a pulse to +160 mV (inside-out HEK patches, 1 μM Ca2+) [2] [nM] | also measured
1 | CC[C@H](C)[C@H](NC(=O)[C@H](CC[S+](C)[O-])NC(=O)[C@H](CCCCN)NC(=O)[C@H](CC[S+](C)[O-])NC(=O)[C@H](CC(N)=O)NC(=O)[C@H](Cc1ccccc1)NC(=O)[C@H](CCCNC(=N)N)NC(=O)[C@H](CCCNC(=N)N)NC(C)=O)C(N)=O (stereo partly drawn) [Ac-RRFNM(O)KM(O)I-NH2] (Ac-RRFN[Met(O)]K[Met(O)]I-NH2) | 13900 ± 1100 | greatly reduced |  | IC50Last5ms increase compared to WT LINGO2 peptide [1]: ~50 fold; Inactivation of BK currents by peptide ([1]; listed as RRFNM(O)KM(O)I): inactivation was practically abolished at all concentrations tested; Inactivation of BK currents by peptide ([1]; listed as peptide containing Met(O) at both positions): time-dependent inactivation was practically abolished
2 | Ac-RRFNMKMI-NH2 [Ac-RRFNMKMI-NH2] |  | caused inactivation, the rate of which was concentration-dependent |  | 95% Confidence Intervals of IC50Last5ms ([1]; n = 6): 223 to 303 nM; IC50 ([1]; n = 6, read-out: IC50Last5ms (half maximal block of current amplitude in last 5 ms of pulse)): 260 ± 78 nM
3 | CC[C@H](C)[C@H](NC(=O)[C@H](CCSC)NC(=O)[C@H](CCCCN)NC(=O)[C@H](CC[S+](C)[O-])NC(=O)[C@H](CC(N)=O)NC(=O)[C@H](Cc1ccccc1)NC(=O)[C@H](CCCNC(=N)N)NC(=O)[C@H](CCCNC(=N)N)NC(C)=O)C(N)=O (stereo partly drawn) [Ac-RRFNM(O)KMI-NH2] (Ac-RRFN[Met(O)]KMI-NH2) | 6900 ± 500 | slower than that of the WT peptide |  | IC50Last5ms increase compared to WT LINGO2 peptide [1]: ~27 fold
4 | O[C@@H](CS)[C@@H](O)CS [DTT] |  |  |  | Effect of DTT alone on peak or sustained currents (BK:LINGO2 channels; 100 μM DTT, 1-5 min, 100 nM Ca2+, 5 to 7 experiments): failed to alter the peak (black circles) or sustained (purple diamonds) currents; Prevention of Ch-T effects by DTT pretreatment / continuous presence (BK:LINGO2 channels; 100 μM DTT, then with Ch-T 5-7 min, 100 nM Ca2+, 5 to 7 experiments): not prevented; also recorded: the effects of Ch-T were unaltered in the continuous presence of DTT; also recorded: resistant to treatment with the cysteine-specific reducing agent DTT; Reversal of Ch-T effects by DTT coapplication (BK:LINGO2 channels; 200 μM Ch-T 1-4 min, then Ch-T + DTT 4-7 min, 4 to 7 experiments): unable to reverse the effects of Ch-T
5 | CC[C@H](C)[C@H](NC(=O)[C@H](CC[S+](C)[O-])NC(=O)[C@H](CCCCN)NC(=O)[C@H](CCSC)NC(=O)[C@H](CC(N)=O)NC(=O)[C@H](Cc1ccccc1)NC(=O)[C@H](CCCNC(=N)N)NC(=O)[C@H](CCCNC(=N)N)NC(C)=O)C(N)=O (stereo partly drawn) [Ac-RRFNMKM(O)I-NH2] (Ac-RRFNMK[Met(O)]I-NH2) | 2300 ± 700 | the rate of inactivation was slower compared to that observed with the WT peptide |  | 95% Confidence Intervals of IC50Last5ms ([1]; n = 5-7): 2000 to 2700 nM
6 | Ac-RRFNMK[Met(O)]I-NH2 (SMILES CC[C@H](C)[C@H](NC(=O)[C@H](CCS(C)=O)NC(=O)[C@H](CCCCN)NC(=O)[C@H](CCSC)NC(=O)[C@H](CC(N)=O)NC(=O)[C@H](Cc1ccccc1)NC(=O)[C@H](CCCNC(=N)N)NC(=O)[C@H](CCCNC(=N)N)NC(C)=O)C(N)=O) [LINGO2 tail peptide Ac-RRFNMKM(O)I-NH2] |  |  | 2300 | 
7 | Ac-RRFN[Met(O)]K[Met(O)]I-NH2 (SMILES CC[C@H](C)[C@H](NC(=O)[C@H](CCS(C)=O)NC(=O)[C@H](CCCCN)NC(=O)[C@H](CCS(C)=O)NC(=O)[C@H](CC(N)=O)NC(=O)[C@H](Cc1ccccc1)NC(=O)[C@H](CCCNC(=N)N)NC(=O)[C@H](CCCNC(=N)N)NC(C)=O)C(N)=O) [LINGO2 tail peptide Ac-RRFNM(O)KM(O)I-NH2] |  |  | 13900 | 
8 | Ac-RRFNMKMI-NH2 [LINGO2 tail peptide Ac-RRFNMKMI-NH2] |  |  | 260 | 
9 | Ac-RRFN[Met(O)]KMI-NH2 (SMILES CC[C@H](C)[C@H](NC(=O)[C@H](CCSC)NC(=O)[C@H](CCCCN)NC(=O)[C@H](CCS(C)=O)NC(=O)[C@H](CC(N)=O)NC(=O)[C@H](Cc1ccccc1)NC(=O)[C@H](CCCNC(=N)N)NC(=O)[C@H](CCCNC(=N)N)NC(C)=O)C(N)=O) [LINGO2 tail peptide Ac-RRFNM(O)KMI-NH2] |  |  | 6900 | 
